The results in this text go back to patent US8003695B2 (Chroma Therapeutics Ltd., priority 2006, dated 2011).

The test has as its target T1, IKBKB (IKKβ) (Homo sapiens, UniProt O14920).
T1 construct: purchased Invitrogen (Paisley, UK)
T1 sequence (O14920 1-756): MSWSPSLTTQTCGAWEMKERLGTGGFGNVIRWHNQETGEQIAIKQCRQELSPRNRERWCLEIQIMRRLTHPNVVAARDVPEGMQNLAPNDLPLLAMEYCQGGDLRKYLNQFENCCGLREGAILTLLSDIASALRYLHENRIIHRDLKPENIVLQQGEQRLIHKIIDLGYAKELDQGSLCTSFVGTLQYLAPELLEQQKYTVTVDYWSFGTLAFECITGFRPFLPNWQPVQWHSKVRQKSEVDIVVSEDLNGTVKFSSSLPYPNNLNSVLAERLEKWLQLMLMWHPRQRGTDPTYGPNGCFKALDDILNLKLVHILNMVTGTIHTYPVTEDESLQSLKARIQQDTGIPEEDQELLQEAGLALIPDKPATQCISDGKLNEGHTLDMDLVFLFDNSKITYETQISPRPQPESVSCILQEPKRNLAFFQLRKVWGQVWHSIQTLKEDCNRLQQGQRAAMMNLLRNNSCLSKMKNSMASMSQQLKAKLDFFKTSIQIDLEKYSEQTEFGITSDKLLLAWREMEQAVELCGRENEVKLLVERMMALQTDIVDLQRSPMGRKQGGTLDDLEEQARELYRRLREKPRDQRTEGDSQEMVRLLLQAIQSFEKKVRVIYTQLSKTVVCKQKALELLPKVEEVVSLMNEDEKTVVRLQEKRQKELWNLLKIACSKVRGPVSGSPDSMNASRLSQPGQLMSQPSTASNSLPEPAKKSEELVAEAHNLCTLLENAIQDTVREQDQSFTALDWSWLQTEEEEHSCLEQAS
Kind of test: IKKβ Enzyme Assay (Z'-LYTE, Invitrogen). It counts as biochemical. The following applies: ATP at or close to Km; read-out: Inhibitor activity versus IKKβ. The protocol:
The ability of compounds to inhibit IKKβ kinase activity was measured in an assay performed by Invitrogen (Paisley, UK). The Z′-LYTE™ biochemical assay employs a fluorescence-based, coupled-enzyme format and is based on the differential sensitivity of phosphorylated and non-phosphorylated peptides to proteolytic cleavage. The peptide substrate is labelled with two fluorophores—one at each end—that make up a FRET pair. In the primary reaction, the kinase transfers the gamma-phosphate of ATP to a single serine or threonine residue in a synthetic FRET-peptide. In the secondary reaction, a site-specific protease recognizes and cleaves non-phosphorylated FRET-peptides. Phosphorylation of FRET-peptides suppresses cleavage by the Development Reagent. Cleavage disrupts FRET between the donor (i.e., coumarin) and acceptor (i.e. fluorescein) fluorophores on the FRET-peptide, whereas uncleaved, phosphorylated FRET-peptides maintain FRET. A […] method, which calculates the ratio (the Emission Ratio) of donor emission to acceptor emission after excitation of the donor fluorophore at 400 nm, is used to quantitate reaction progress.
The final 10 μL Kinase Reaction consists of 0.9-8.0 ng IKBKB (IKKβ), 2 μM Ser/Thr 05 Peptide and ATP in 50 mM HEPES pH 7.5, 0.01% BRIJ-35, 10 mM MgCl2, 1 mM EGTA. The assay is performed at an ATP concentration at, or close to the Km. After the 60 minute Kinase Reaction incubation at room temperature, 5 μL of a 1:128 dilution of Development Reagent is added. The assay plate is incubated for a further 60 minutes at room temperature and read on a fluorescence plate reader.
Duplicate data points are generated from a ⅓ log dilution series of a stock solution of test compound in DMSO. Nine dilutions steps are made from a top concentration of 10 μM, and a ‘no compound’ blank is included. Data is collected and analysed using XLfit software from IDBS. The dose response curve is curve fitted to model number 205 (sigmoidal dose-response model). From the curve generated, the concentration giving 50% inhibition is determined and reported.

Where only a bound is given, the exact number is not on record here.

Regarding `NC(=O)Nc1sc(-c2ccc(CN[C@H](C(=O)O)c3ccccc3)cc2)cc1C(N)=O` [Example 50, (2S)-({4-[4-carbamoyl-5-(carbamoylamino)-2-thienyl]benzyl}amino)(phenyl)acetic acid], the IC50 is < 1 µM.

For `CC(C)C[C@H](NCc1ccc(-c2cc(C(N)=O)c(NC(N)=O)s2)cc1)C(=O)O` [Example 51, N-{4-[4-Carbamoyl-5-(carbamoylamino)-2-thienyl]benzyl}-L-leucine], the IC50 was < 1 µM.

`NC(=O)Nc1sc(-c2ccc(CN[C@@H](Cc3ccccc3)C(=O)O)cc2)cc1C(N)=O` [Example 52, N-{-4-[4-Carbamoyl-5-(carbamoylamino)-2-thienyl]benzyl}-L-phenylalanine]: the IC50 is < 1 µM.

For the compound `NC(=O)Nc1sc(-c2ccc(CN[C@@H](C(=O)O)c3ccccc3)cc2)cc1C(N)=O` [Example 53, (2R)-({-4-[4-Carbamoyl-5-(carbamoylamino)-2-thienyl]benzyl}amino)(phenyl)acetic acid], the IC50 was < 1 µM.

Turning to `NC(=O)Nc1sc(-c2ccc(CN[C@H](C(=O)O)c3ccc4ccccc4c3)cc2)cc1C(N)=O` [Example 54, (2S)-({-4-[4-Carbamoyl-5-(carbamoylamino)-2-thienyl]benzyl}amino)(2-naphthyl)acetic acid], the IC50 is < 1 µM.

In the case of `CC(C)C[C@H](NCc1ccc(-c2cc(C(N)=O)c(NC(N)=O)s2)c(Cl)c1)C(=O)O` [Example 55, N{4-[4-carbamoyl-5-(carbamoylamino)-2-thienyl]-3-chlorobenzyl}-L-leucine], the IC50 is < 1 µM.

For `Cc1cc(-c2cc(C(N)=O)c(NC(N)=O)s2)ccc1CN[C@@H](CC(C)C)C(=O)O` [Example 56, N-{4-[4-carbamoyl-5-(carbamoylamino)-2-thienyl]-2-methylbenzyl}-L-leucine], the IC50 is < 1 µM.

For the compound `CC(C)C[C@H](NCc1cccc(-c2cc(C(N)=O)c(NC(N)=O)s2)c1)C(=O)O` [Example 57, N-{3-[4-Carbamoyl-5-(carbamoylamino)-2-thienyl]benzyl}-L-leucine], the IC50 was < 1 µM.

As for `NC(=O)Nc1sc(-c2cccc(CN[C@H](C(=O)O)c3ccccc3)c2)cc1C(N)=O` [Example 58, (2S)-({3-[4-carbamoyl-5-(carbamoylamino)-2-thienyl]benzyl}amino)(phenyl)acetic acid], the IC50 was < 1 µM.

With `NC(=O)Nc1sc(-c2cccc(CN[C@H](C(=O)O)C3CCCCC3)c2)cc1C(N)=O` [Example 59, (2S)-({3-[4-carbamoyl-5-(carbamoylamino)-2-thienyl]benzyl}amino)(cyclohexyl)acetic acid], the IC50 was < 1 µM.

In the case of `CC(C)(C)OC[C@H](NCc1cccc(-c2cc(C(N)=O)c(NC(N)=O)s2)c1)C(=O)O` [Example 60, O-tert-butyl-N-{3-[4-carbamoyl-5-(carbamoylamino)thiophen-2-yl]benzyl}-L-serine], the IC50 is < 1 µM.

Regarding `C[C@@H](O)[C@H](NCc1cccc(-c2cc(C(N)=O)c(NC(N)=O)s2)c1)C(=O)O` [Example 61, N-{3-[4-carbamoyl-5-(carbamoylamino)thiophen-2-yl]benzyl}-L-threonine], the IC50 is < 1 µM.

`CC(C)C[C@H](NCCc1ccc(-c2cc(C(N)=O)c(NC(N)=O)s2)cc1)C(=O)O` [Example 63]: the IC50 is < 1 µM.

With `CC(C)C[C@H](NCCc1ccc(-c2cc(C(N)=O)c(NC(N)=O)s2)c(Cl)c1)C(=O)O` [Example 64, N-(2-{-4-[4-Carbamoyl-5-(carbamoylamino)-2-thienyl]-3-chlorophenyl}ethyl)-L-leucine], the IC50 is < 1 µM.

For `CC(C)C[C@H](NCCCOc1ccc(-c2cc(C(N)=O)c(NC(N)=O)s2)cc1)C(=O)O` [Example 65, N-(3-{4-[4-Carbamoyl-5-(carbamoylamino)-2-thienyl]phenoxy}propyl)-L-leucine], the IC50 was < 1 µM.

Take `CC(C)C[C@H](NCCCOc1ccc(-c2cc(C(N)=O)c(NC(N)=O)s2)c(Cl)c1)C(=O)O` [Example 66, N-(3-{4-[4-Carbamoyl-5-(carbamoylamino)-2-thienyl]-3-chlorophenoxy}propyl)-L-leucine]: the IC50 is < 1 µM.

As for `CC(C)C[C@H](NCCCCCOc1ccc(-c2cc(C(N)=O)c(NC(N)=O)s2)cc1)C(=O)O` [Example 67], the IC50 was < 1 µM.

Take `CC(C)C[C@H](NCCCCCOc1ccc(-c2cc(C(N)=O)c(NC(N)=O)s2)c(Cl)c1)C(=O)O` [Example 68, N-(5-{4-[4-Carbamoyl-5-(carbamoylamino)-2-thienyl]-3-chlorophenoxy}pentyl)-L-leucine]: the IC50 is < 1 µM.

On to `CC(C)C[C@H](NC/C=C/c1ccc(-c2cc(C(N)=O)c(NC(N)=O)s2)cc1)C(=O)O` [Example 69, N-[(2E)-3-{4-[4-Carbamoyl-5-(carbamoylamino)-2-thienyl]phenyl}prop-2-en-1-yl]-L-leucine], for which the IC50 is < 1 µM.

Take `Cc1cc(-c2cc(C(N)=O)c(NC(N)=O)s2)ccc1/C=C/CN[C@@H](CC(C)C)C(=O)O` [Example 70, N-[(2E)-3-{4-[4-carbamoyl-5-(carbamoylamino)thiophen-2-yl]-2-methylphenyl}prop-2-en-1-yl]-L-leucine]: the IC50 was < 1 µM.

`CC(C)C[C@H](NC/C=C/c1ccc(-c2cc(C(N)=O)c(NC(N)=O)s2)cc1F)C(=O)O` [Example 71, N-[(2E)-3-{4-[4-carbamoyl-5-(carbamoylamino)thiophen-2-yl]-2-fluorophenyl}prop-2-en-1-yl]-L-leucine]: the IC50 is < 1 µM.

`CC(C)C[C@H](NC/C=C/c1ccc(-c2cc(C(N)=O)c(NC(N)=O)s2)cc1Cl)C(=O)O` [Example 72, N-[(2E)-3-{4-[4-carbamoyl-5-(carbamoylamino)thiophen-2-yl]-2-chlorophenyl}prop-2-en-1-yl]-L-leucine]: the IC50 is < 1 µM.

For the compound `Cc1cc(/C=C/CN[C@@H](CC(C)C)C(=O)O)ccc1-c1cc(C(N)=O)c(NC(N)=O)s1` [Example 73, N-[(2E)-3-{4-[4-carbamoyl-5-(carbamoylamino)thiophen-2-yl]-3-methylphenyl}prop-2-en-1-yl]-L-leucine], the IC50 was < 1 µM.

On to `CC(C)C[C@H](NC/C=C/c1ccc(-c2cc(C(N)=O)c(NC(N)=O)s2)c(F)c1)C(=O)O` [Example 74, N-[(2E)-3-{4-[4-carbamoyl-5-(carbamoylamino)thiophen-2-yl]-3-fluorophenyl}prop-2-en-1-yl]-L-leucine], for which the IC50 is < 1 µM.

`CC(C)C[C@H](NC/C=C/c1ccc(-c2cc(C(N)=O)c(NC(N)=O)s2)c(Cl)c1)C(=O)O` [Example 75, N-[(2E)-3-{4-[4-carbamoyl-5-(carbamoylamino)thiophen-2-yl]-3-chlorophenyl}prop-2-en-1-yl]-L-leucine]: the IC50 is < 1 µM.

Consider `CC(C)C[C@H](NC/C=C/c1ccc(-c2cc(C(N)=O)c(NC(N)=O)s2)cc1C(F)(F)F)C(=O)O` [Example 76, N-[(2E)-3-{4-(4-carbamoyl-5-(carbamoylamino)thiophen-2-yl]-2-(trifluoromethyl)phenyl}prop-2-en-1-yl]-L-leucine], for which the IC50 was < 1 µM.

Take `CC(C)C[C@H](NC/C=C/c1cc(F)c(-c2cc(C(N)=O)c(NC(N)=O)s2)cc1F)C(=O)O` [Example 77, N-[(2E)-3-{4-[4-carbamoyl-5-(carbamoylamino)thiophen-2-yl]-2,5-difluorophenyl}prop-2-en-1-yl]-L-leucine]: the IC50 was < 1 µM.

As to `CC(C)C[C@H](NC/C=C/c1c(F)cc(-c2cc(C(N)=O)c(NC(N)=O)s2)cc1F)C(=O)O` [Example 78, N-[(2E)-3-{4-[4-carbamoyl-5-(carbamoylamino)thiophen-2-yl]-2,6-difluorophenyl}prop-2-en-1-yl]-L-leucine], the IC50 was < 1 µM.
